Here are results for 5 compounds from ChEMBL document CHEMBL6134810, “Novel Hypochlorous Acid-Activated Near-Infrared Probe Monitors the Dynamic Changes of Myeloperoxidase Activity in Ischemic Brain” (J Med Chem, 2025).

The structures appear in SMILES notation. Active and inactive are the calls of the source. No cut-off for these calls is given here.

For series [1], the system named is HT-22. Description: Cytotoxicity against mouse HT-22 cells assessed as cell viability at 50 uM incubated for 24 hrs by CCK-8 method. The class given is functional, cell-based.
For a further series, the target named is T1, Myeloperoxidase (Homo sapiens, UniProt P05164).
T1 sequence (P05164 whole entry): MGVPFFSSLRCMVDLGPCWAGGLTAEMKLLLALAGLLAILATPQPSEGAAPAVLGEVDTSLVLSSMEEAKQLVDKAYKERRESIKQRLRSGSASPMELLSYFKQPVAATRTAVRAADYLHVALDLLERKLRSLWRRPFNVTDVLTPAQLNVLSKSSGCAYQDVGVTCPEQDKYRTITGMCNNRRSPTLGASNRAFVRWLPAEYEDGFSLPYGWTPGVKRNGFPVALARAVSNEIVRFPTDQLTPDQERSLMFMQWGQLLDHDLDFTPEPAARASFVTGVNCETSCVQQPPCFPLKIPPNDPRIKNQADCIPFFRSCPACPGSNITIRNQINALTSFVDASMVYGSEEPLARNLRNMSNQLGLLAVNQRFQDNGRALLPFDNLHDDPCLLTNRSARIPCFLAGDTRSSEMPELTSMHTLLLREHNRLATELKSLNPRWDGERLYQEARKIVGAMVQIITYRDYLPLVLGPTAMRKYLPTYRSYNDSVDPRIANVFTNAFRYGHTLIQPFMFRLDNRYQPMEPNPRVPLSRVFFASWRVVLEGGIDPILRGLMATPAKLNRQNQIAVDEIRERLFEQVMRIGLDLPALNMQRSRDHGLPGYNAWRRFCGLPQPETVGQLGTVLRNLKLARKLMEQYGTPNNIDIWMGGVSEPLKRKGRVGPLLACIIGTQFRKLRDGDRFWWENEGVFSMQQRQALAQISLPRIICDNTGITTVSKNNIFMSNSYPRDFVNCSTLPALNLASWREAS
Description: (§1) Binding affinity to MPO (unknown origin) assessed as dissociation constant by ITC analysis.

For series [2], the target named is T2, Myeloperoxidase (Homo sapiens) (UniProt P05164).
T2 sequence (whole entry): T1 sequence (P05164 whole entry)
The experiment in a line: Binding affinity to MPO (unknown origin) assessed as change in enthalpy by ITC analysis. For orientation: ITC needs no label: the signal is the heat of the interaction.

Series [3] has as its target T2, Myeloperoxidase (Homo sapiens). The experiment in a line: Induction of thermal stabilization of MPO (unknown origin) at 10 uM by CESTA analysis.
Series [4] can be described thus: Drug uptake in human HeLa cells at 10 uM measured after 30 mins by Hoechst staining based confocal microscopic analysis. It counts as ADME, cell-based. To be noted: 0.5 h.
The nature of series [5]: Drug uptake in human HeLa cells assessed as increase in red fluorescence at 10 uM measured after 30 mins in presence of HClO by Hoechst staining based confocal microscopic analysis. To be noted: 0.5 h. The class given is ADME, cell-based.
The nature of series [6]: Drug uptake in human HeLa cells assessed as increase in red fluorescence at 10 uM measured within 40 mins in presence of HClO by Hoechst staining based confocal microscopic analysis. It counts as ADME, cell-based.
A short description of series [7]: Drug uptake in IFN-gamma treated human Neutrophil cells assessed as increase in fluorescence at 10 uM measured after 30 mins by Hoechst staining based confocal microscopic analysis. It counts as ADME, cell-based. The conditions noted are these: 0.5 h.
Series [8] deals with Mus musculus. Description: Protection against photo thrombotic stroke induced cerebral ischemia in male C57BL/6 mouse model assessed as MPO secretion in brain at 1 mg/kg, iv by Ly6G staining based confocal microscopy based analysis. It counts as functional, organism-based.
In series [9] the target is T2, Myeloperoxidase (Homo sapiens). Description: Inhibition of MPO in HEK293T cells harbouring MPO-ZsGreen assessed as decrease in red fluorescence intensity at 10 uM preincubated with MPO-IN-28 for 4 hrs followed by compound addition and measured after 30 mins by fluorescence imaging based confocal microscopy analysis. It counts as cell-based.
For series [10] the target is unchanged. The experiment in a line: Inhibition of MPO in HEK293T cells harbouring MPO-ZsGreen assessed as decrease in red fluorescence intensity at 10 uM preincubated with AZD5904 for 4 hrs followed by compound addition and measured after 30 mins by fluorescence imaging based confocal microscopy analysis. It counts as cell-based.
For series [11] the target is unchanged. Description: Inhibition of MPO in human HL-60 cells harbouring MPO-ZsGreen assessed as decrease in red fluorescence intensity at 10 uM preincubated with MPO-IN-28 for 2 hrs followed by compound addition and measured after 30 mins by fluorescence imaging based confocal microscopy analysis. The class given is cell-based.
Series [12] shares this target. Description: Inhibition of MPO in human HL-60 cells harbouring MPO-ZsGreen assessed as decrease in red fluorescence intensity at 10 uM preincubated with AZD5904 for 2 hrs followed by compound addition and measured after 30 mins by fluorescence imaging based confocal microscopy analysis. It counts as cell-based.
Series [13] has the same target. The experiment in a line: Inhibition of MPO in HEK293T cells harbouring MPO-ZsGreen assessed as decrease in red fluorescence intensity at 10 uM preincubated with ZL-006 for 4 hrs followed by compound addition and measured after 30 mins by fluorescence imaging based confocal microscopy analysis. The class given is cell-based.
Series [14] has the same target. Description: Inhibition of MPO in HEK293T cells harbouring MPO-ZsGreen assessed as decrease in red fluorescence intensity at 10 uM preincubated with ZL-002 for 4 hrs followed by compound addition and measured after 30 mins by fluorescence imaging based confocal microscopy analysis. The class given is cell-based.
Series [15] has the same target. The experiment in a line: Inhibition of MPO in HEK293T cells harbouring MPO-ZsGreen assessed as decrease in red fluorescence intensity at 10 uM preincubated with edaravone for 4 hrs followed by compound addition and measured after 30 mins by fluorescence imaging based confocal microscopy analysis. It counts as cell-based.
The test system of series [16] is Brain. Description: Ex vivo protection against photo thrombotic stroke induced cerebral ischemia in male C57BL/6 mouse brain assessed as decrease in MPO induced HClO fluorescence signal in cortex at 10 uM preincubated with MPO-IN-28 for 1 hr followed by compound addition and measured after 30 mins by fluorescence imaging based confocal microscopy analysis. It counts as functional, tissue-based.

The subject of series [17] is Brain. Description: Ex vivo protection against photo thrombotic stroke induced cerebral ischemia in male C57BL/6 mouse brain assessed as decrease in MPO induced HClO fluorescence signal in cortex at 10 uM preincubated with AZD5904 for 1 hr followed by compound addition and measured after 30 mins by fluorescence imaging based confocal microscopy analysis. It counts as functional, tissue-based.

The species entered for series [18] is Mus musculus. Description: Protection against photo thrombotic stroke induced cerebral ischemia in male C57BL/6 mouse model assessed as decrease in fluorescence response in brain cortex preincubated with AZD5904 for 18 consecutive days followed by induction of stoke for 3 days and measured after 7 days by Ly6G staining based confocal microscopy based analysis. The class given is functional, organism-based. The conditions noted are these: time 7.0 day.

The test system of series [19] is HT-22. The experiment in a line: Cytotoxicity against mouse HT-22 cells assessed as cell viability at 20 uM incubated for 24 hrs by CCK-8 method. The class given is functional, cell-based.
For series [20], the target named is T2, Myeloperoxidase (Homo sapiens). Described as §1.
Series [21] is filed under the species Mus musculus. The experiment in a line: Protection against photo thrombotic stroke induced cerebral ischemic male C57 mouse model assessed as reduction in number neutrophils measured after 7 days. The class given is functional, organism-based. To be noted: time 7.0 day.
Series [22] is filed under the species Mus musculus. The experiment in a line: Protection against photo thrombotic stroke induced cerebral ischemic male C57 mouse model assessed as improvement in sensory motor dysfunction measured after 5 days by rotarod test. It counts as functional, organism-based. To be noted: time 5.0 day. Background: In the rotarod test animals must keep their balance on a rotating rod.

Series [23] is filed under the species Mus musculus. Description: Protection against photo thrombotic stroke induced cerebral ischemic male C57 mouse model assessed as improvement in sensory motor dysfunction measured after 5 days by foot fault test. The class given is functional, organism-based. To be noted: time 5.0 day.
For series [24], the system named is Mus musculus. Description: Protection against photo thrombotic stroke induced cerebral ischemia in male C57BL/6 mouse model assessed as inhibition of MPO activity in brain at 40 mg/kg, IG preincubated for 18 consecutive days followed by induction of stoke for 3 days and measured after 7 days. To be noted: time 28.0 day. The class given is functional, organism-based.

Series [25] concerns Mus musculus. The experiment in a line: Protection against photo thrombotic stroke induced cerebral ischemia in male C57BL/6 mouse model assessed as decrease in infarct size at 40 mg/kg, IG preincubated for 18 consecutive days followed by induction of stoke for 3 days and measured after 5 days by TTC staining based analysis. It counts as functional, organism-based. To be noted: time 26.0 day.

In series [26] the test system is Mus musculus. Description: Protection against photo thrombotic stroke induced cerebral ischemia in male C57BL/6 mouse model assessed as effect on body weight at 40 mg/kg, IG preincubated for 18 consecutive days followed by induction of stoke for 3 days and measured after 5 days by TTC staining based analysis. To be noted: time 26.0 day. It counts as functional, organism-based.

The subject of series [27] is Mus musculus. Description: Protection against photo thrombotic stroke induced cerebral ischemia in male C57BL/6 mouse model assessed as amelioration of foot fault in forelimb at 40 mg/kg, IG preincubated for 18 consecutive days followed by induction of stoke for 3 days and measured after 5 to 15 days by foot fault test. It counts as functional, organism-based. The conditions noted are these: time 26-36 day.

In series [28] the test system is Mus musculus. The experiment in a line: Protection against photo thrombotic stroke induced cerebral ischemia in male C57BL/6 mouse model assessed as amelioration of foot fault in hindlimb at 40 mg/kg, IG preincubated for 18 consecutive days followed by induction of stoke for 3 days and measured after 5 to 15 days by foot fault test. It counts as functional, organism-based. The conditions noted are these: time 26-36 day.

The subject of series [29] is Mus musculus. The experiment in a line: Protection against photo thrombotic stroke induced cerebral ischemia in male C57BL/6 mouse model assessed as decrease in asymmetry index at 40 mg/kg, IG preincubated for 18 consecutive days followed by induction of stoke for 3 days and measured after 10 to 15 days by foot fault test. It counts as functional, organism-based. To be noted: time 31-36 day.

By Kd is commonly meant a measure of binding affinity in units of concentration. For the compound `COc1ccc2[nH]cc(CCNC(=S)NN3C(=O)c4ccccc4C34c3ccc(N(C)C)cc3[Si](C)(C)c3cc(N(C)C)ccc34)c2c1`, the Activity result with HT-22 [1] is “Active; Compound Showed Little Toxicity”. In addition, the Kd on Myeloperoxidase worked out at 11.6 µM. In addition, in series [2], the deltaH came out at 2.39 kcal/mol. For the same compound, the result (in series [3]; with Mus musculus [8]; in the series on Brain [16]; with Brain [17]; in the series listed under Mus musculus [18]) was Active. Also, the Drug uptake result in series [4] is reported as “Not_active”; in series [5] it was “Active”; in series [6], “Not_active”; in [7], “Active”. Moreover, the inhibition result in [9], in [10], in [11], in [12] and in [13] was “Active” in each case. Also, the inhibition entry in series [14] and in series [15] was “inactive” throughout.
On to `CN(C)c1ccc2c(c1)[Si](C)(C)c1cc(N(C)C)ccc1C21c2ccccc2C(=O)N1NC(=S)NCCc1c[nH]c2ccc(O)cc12`, for which, in the series on HT-22 [19], the result was Active.
For `CCNc1cc2[o+]c3cc(NCC)c(C)cc3c(-c3ccccc3C(=O)OCC)c2cc1C`, the outcome in [20] and in series [2] was inactive.
With `CC1=NN(c2ccccc2)C(=O)C1`, the outcome in the series filed under Mus musculus [21], in the series listed under Mus musculus [22] and in the series filed under Mus musculus [23] was inactive.
Consider `O=c1[nH]c(=S)n(C[C@H]2CCCO2)c2nc[nH]c12`, for which the outcome in the series on Mus musculus [24], in the series on Mus musculus [25], with Mus musculus [26], with Mus musculus [27], with Mus musculus [28] and in the series on Mus musculus [29] was Active.
